From patent US10111921B2, “Regulation of brain biogenic amines associated with depression by a formulation from botanical source” (GoVind Prasad Dubey, priority 2014, dated 2018)
Marks after values point to notes of the source that are not given here.

Experiments:
MAO = assay: Circulating MAO following experimental sleep deprivation stress; format: in vivo, rats of Charles foster strain; conditions: 7 days sleep deprivation stress + drug, 10 rats
Description: (§1) The study is divided into four groups, 10 rats of Charles foster strain were kept in each study group.
(§2) In this group the sleep deprivation stress was introduced along with the hydro-alcoholic extract of three plants Nyctanthes arbor-tristis, Ocimum tenuiflorum and Hippophae salicifolia. The drug Nyctanthes arbor-tristis (100 mg/kg bw./day), Ocimum tenuiflorum (50 mg/kg bw./day), Hippophae salicifolia (50 mg/kg bw./day) was given in combined form to all the 10 rats along with sleep deprivation stress. On 7th day (after two hours of administration of test drug) different parts of the rat's brain were dissected and 5-HT, melatonin GABA. glutamate and histamine were measured.
(§3) On 7th days the animals were sacrifice and brain biogenic amines were estimated in different parts of rat's brain.
(§4) The value obtained were compared with each other group (Normal vs sleep deprivation stress and sleep deprivation stress vs sleep deprivation stress+test formulation and sleep deprivation stress vs modern drug treatment group. Apart from initial at 7 day before sacrificing the animals circulating biogenic amines were also measured in all the three groups.

Histaminase = assay: Circulating histaminase following experimental sleep deprivation stress; format: in vivo, rats of Charles foster strain; conditions: 7 days sleep deprivation stress + drug, 10 rats
Description: as §1, §2, §3, §4

GABA [1] = assay: GABA content in the brain following experimental sleep deprivation stress; format: in vivo, rats of Charles foster strain; conditions: 7 days sleep deprivation stress + drug, 10 rats
From the text: as §1
(§5) In control group 10 rats were selected and kept on normal saline for 7 days. On 7th days the animals were sacrificed and various biogenic amines like 5-HT GABA & glutamate, melatonin and MAO were estimated. After dissection of rat's brain the biogenic amines were estimated in thalamus, hypothalamus and cortex.
(§6) In this group sleep deprivation stress for 7 days was given to all the 10 rats. After 7 days the rat's brain were dissected and thalamus, hypo-thalamus and cortex were separated for the measurement of brain biogenic amines.
as §2, §3, §4

GABA [2] = assay: Circulating GABA following experimental sleep deprivation stress; format: in vivo, rats of Charles foster strain; conditions: 7 days sleep deprivation stress + drug, 10 rats
Description: as §1, §2, §3, §4

Glutamate [3] = assay: Circulating glutamate following experimental sleep deprivation stress; format: in vivo, rats of Charles foster strain; conditions: 7 days sleep deprivation stress + drug, 10 rats
Description: as §1, §2, §3, §4

Melatonin = Melatonin level in brain, experimental sleep deprivation stress model; format: in vivo, rats of Charles foster strain; conditions: 7 days sleep deprivation stress + drug, 10 rats
Description: In this group the sleep deprivation stress was introduced along with the hydro-alcoholic extract of three plants Nyctanthes arbor-tristis, Ocimum tenuiflorum and Hippophae salicifolia. […] On 7th day (after two hours of administration of test drug) different parts of the rat's brain were dissected and 5-HT, melatonin GABA. glutamate and histamine were measured. […]

Glutamate [4] = assay: Glutamate level in brain following experimental sleep deprivation stress; format: in vivo, rats of Charles foster strain; conditions: 7 days sleep deprivation stress + drug, 10 rats
From the text: as §1, §5, §6, §2, §3, §4

minor depressive cases [5] = assay: Rotatory pursuit task (psychomotor coordination), clinical trial; format: in vivo, human
Description: (§7) In the present study 99 cases between the age group of 20 to 60 years presenting the symptoms of mild to moderate depression were selected for clinical trial of test formulation containing extract of Nyctanthes arbor-tristis, Ocimum tenuiflorum and Hippophae salicifolia. The subjects were advised to take test formulation twice in a day in two divided doses (475 mg morning and 475 mg in the evening). The level of mood was measured by Major Depression Inventory (MDI) developed by Olsen L R et al (2003), the fatigue and psychomotor performance was measured by Mental Fatigue Apparatus and Rotary Pursuit Task. These tests and test battery are recommended by Gupta and Dubey (1994) for the scientific and objective assessment in the area of drug development. The behavioral pattern was repeatedly assessed at the continuous interval of one month for six months.

DHA = DHA content in mild to moderate depressive patients; format: in vivo, human
Description: as §7

[6] = tested on: depressive disorder cases; assay: Mental fatigue (Time), clinical trial; format: in vivo, human
Description: as §7

[7] = tested on: mild to moderate depression; assay: Clinical symptomatology (in percent), clinical trial; format: in vivo, human
Description: as §7

depression patients = assay: Attention span (score), clinical trial; format: in vivo, human
Description: as §7

depression cases [8] = assay: Delta wave in depression cases; format: in vivo, human
Description: as §7

[9] = tested on: depressive disorder cases; assay: Anxiety level (score), clinical trial; format: in vivo, human
Description: as §7

minor depressive cases [10] = assay: Mental fatigue level (Mental Fatigue Apparatus), clinical trial; format: in vivo, human
Description: as §7

IL-1 β = assay: Interleukin-1 β concentration in mild to moderate depressive patients; format: in vivo, human
Description: as §7

TNF-α = TNF-α in mild to moderate depressive patients; format: in vivo, human
Description: as §7

Platelet MAO = Platelet MAO activity in depressive disorder cases; format: in vivo, human
Description: as §7

GABA [11] = assay: GABA level in depression cases; format: in vivo, human
Description: as §7

Neuro-peptide-γ = Neuro-peptide-γ content in depressed patients; format: in vivo, human
Glutamate [12] = assay: Glutamate level in depression cases; format: in vivo, human
Description: as §7

Glutamate [13] = assay: Column headed Glutamate (nmol/mg/hr) in platelet MAO table, depressive disorder cases; format: in vivo, human; conditions: After 6 months; clinical Table 8
From the text: (§8) In the present study 99 cases between the age group of 20 to 60 years presenting the symptoms of mild to moderate depression were selected for clinical trial of test formulation containing extract of Nyctanthes arbor-tristis, Ocimum tenuiflorum and Hippophae salicifolia. […] The behavioral pattern was repeatedly assessed at the continuous interval of one month for six months.

depression cases [14] = assay: Occipito frontalis muscle action potential in depression cases; format: in vivo, human
Description: as §7

depressive patients = assay: Sleep pattern by polysomnographic studies in depressive patients; format: in vivo, human
Description: as §7
In control series (Sertraline treated) all the investigations were repeated and compared with the treated group.
There is an increase in DHA content after oral administration of test formulation for 6 months (Table-12). […] Neuro-peptide-γ is the 36-amino acid which affects anxiety, stress, pain, circadian rhythm and also associated various psychiatric disorders particularly depression of varying degree. […] The effect of test formulation on sleep pattern measured by recording on polysomnographic studies indicated improvement in sleep period, total sleep, sleep latency and various stages of sleep. Though none of the cases could achieve the stage four. The results obtained in the test formulation treatment group were compared with the conventional drug treated group and exerted significant difference when the conventional treated group was compared with the test formulation treated group (Table-16-17). The drug was found safe and effective after 6 months of continuous oral administration to depressed patients.

Epinephrine = Epinephrine level in depressive cases; format: in vivo, human; conditions: Initial
From the text: as §8

In the case of `CNC1=Nc2ccc(Cl)cc2C(c2ccccc2)=[N+]([O-])C1` [Librium], the “MAO (circulating)” value (MAO) is reported as 4.72 ± 0.89 nmol/m//hrs, the “Histaminase (circulating)” value (Histaminase) is reported as 35.46 ± 4.95 µg/mL and the “GABA, Cortex” value (GABA [1]; cortex) is reported as 2.62 ± 0.59 μmol/gm in wet tissue. The “GABA, Hypothalamus” value (GABA [1]; hypothalamus) was 4.68 ± 1.02 μmol/gm in wet tissue, the “GABA, Thalamus” value (GABA [1]; thalamus) was 3.91 ± 0.58 μmol/gm in wet tissue and the “GABA (circulating)” value (GABA [2]) was 1.02 ± 0.18 µmol/mL. For the same compound, the “Glutamate (circulating)” value (Glutamate [3]) was 1.11 ± 0.10 µmol/mL, the “Melatonin, Hypothalamus” value (Melatonin; hypothalamus) was 7.80 ± 1.02 μg/gm in wet tissue and the “Melatonin, Thalamus” value (Melatonin; thalamus) was 5.95 ± 1.85 μg/gm in wet tissue. The “Glutamate, Cortex” value (Glutamate [4]; cortex) was 13.97 ± 2.11 μmol/gm in wet tissue, the “Glutamate, Hypothalamus” value (Glutamate [4]; hypothalamus) was 12.66 ± 3.06 μmol/gm in wet tissue and the “Glutamate, Thalamus” value (Glutamate [4]; thalamus) was 11.64 ± 3.01 μmol/gm in wet tissue.

With `CN[C@H]1CC[C@@H](c2ccc(Cl)c(Cl)c2)c2ccccc21` [Sertraline] the Rotatory pursuit task (minor depressive cases [5]; After 2 months) was 28.03 Hz, the Rotatory pursuit task (minor depressive cases [5]; After 4 months) was 27.47 Hz and the Rotatory pursuit task (minor depressive cases [5]; After 6 months) was 26.52 Hz. The Rotatory pursuit task (minor depressive cases [5]; Initial) was 28.39 Hz, the DHA (DHA; After 2 months) was 1.082 g/100 g of total fatty acid and the DHA (DHA; After 4 months) was 1.920 g/100 g of total fatty acid. For the same compound, the DHA (DHA; After 6 months) was 1.980 g/100 g of total fatty acid, the DHA (DHA; Initial) was 1.096 g/100 g of total fatty acid and the “Mental fatigue (Time)” value ([6]; After 6 month) was 90.3. The “Mental fatigue (Time)” value ([6]; Initial) was 94.5, the Early fatiguability ([7]; After 6 months) was 91.12* percent and the Lack of interest ([7]; After 6 months) was 92.20* percent. For the same compound, the Pessimistic thinking ([7]; After 6 months) was 95.86* percent, the Poor appetite ([7]; After 6 months) was 50.03* percent and the Poor concentration ([7]; After 6 months) was 86.02* percent. The Poor sleep ([7]; After 6 months) was 79.41* percent, the Psychomotor retardation ([7]; After 6 months) was 78.09* percent and the Weight loss ([7]; After 6 months) was 40.32* percent. The Early fatiguability ([7]; Initial) was 98.01%, the Lack of interest ([7]; Initial) was 97.82% and the Pessimistic thinking ([7]; Initial) was 96.27%. It also gave a Poor appetite ([7]; Initial) of 58.89%, a Poor concentration ([7]; Initial) of 88.41% and a Poor sleep ([7]; Initial) of 98.04%. The Psychomotor retardation ([7]; Initial) was 74.66%, the Weight loss ([7]; Initial) was 42.01% and the Attention span (depression patients; After 6 months) was 9.32 Score. For the same compound, the Attention span (depression patients; Initial) was 10.49 Score, the “Delta Wave” value (depression cases [8]; After 2 months) was 0.94 Hz and the “Delta Wave” value (depression cases [8]; After 4 months) was 1.06 Hz. For the same compound, the “Delta Wave” value (depression cases [8]; After 6 months) was 1.02 Hz, the “Delta Wave” value (depression cases [8]; Initial) was 0.68 Hz and the Anxiety level ([9]; After 6 months) was 58.5 score. It also gave an Anxiety level ([9]; Initial) of 56.5 score, a Mental fatigue level (minor depressive cases [10]; After 2 months) of 19.68 Hz and a Mental fatigue level (minor depressive cases [10]; After 4 months) of 19.02 Hz. The Mental fatigue level (minor depressive cases [10]; After 6 months) was 18.45 Hz, the Mental fatigue level (minor depressive cases [10]; Initial) was 18.22 Hz and the “IL-1 β” value (IL-1 β; After 2 months) was 1.886 µg/mL. For the same compound, the “IL-1 β” value (IL-1 β; After 4 months) was 1.923 µg/mL, the “IL-1 β” value (IL-1 β; After 6 months) was 1.790 µg/mL and the “IL-1 β” value (IL-1 β; Initial) was 2.098 µg/mL. The “TNF-1 α” value (TNF-α; After 2 months) was 3.71 ng/mL, the “TNF-1 α” value (TNF-α; After 4 months) was 3.85 ng/mL and the “TNF-1 α” value (TNF-α; After 6 months) was 4.14 ng/mL. For the same compound, the “TNF-1 α” value (TNF-α; Initial) was 4.82 ng/mL, the “Platelet MAO” value (Platelet MAO; After 6 months) was 5.98 nmol/mL/h and the “Platelet MAO” value (Platelet MAO; Initial) was 5.04 nmol/mL/h. The GABA (GABA [11]; After 6 months) was 1.410 µmol/mL, the GABA (GABA [11]; Initial) was 1.070 µmol/mL and the Neuro-peptide-γ (Neuro-peptide-γ; After 2 months) was 148.90 pg/mL. It also gave a Neuro-peptide-γ (Neuro-peptide-γ; After 4 months) of 151.89 pg/mL, a Neuro-peptide-γ (Neuro-peptide-γ; After 6 months) of 156.04 pg/mL and a Neuro-peptide-γ (Neuro-peptide-γ; Initial) of 129.68 pg/mL. It also gave a Glutamate (Glutamate [12]; After 6 months) of 0.385 µmol/mL, a Glutamate (Glutamate [12]; Initial) of 0.419 µmol/mL and a Glutamate (Glutamate [13]) of 4.23 nmol/mg/h. For the same compound, the “Occipito frontalis muscle action potential” value (depression cases [14]; After 2 months) was 41.75, the “Occipito frontalis muscle action potential” value (depression cases [14]; After 4 months) was 42.82 and the “Occipito frontalis muscle action potential” value (depression cases [14]; After 6 months) was 40.86. The “Occipito frontalis muscle action potential” value (depression cases [14]; Initial) was 4.378, the “Sleep Latency” value (depressive patients; After 6 months treatment) was 14.98 min and the Sleep period (depressive patients; After 6 months treatment) was 438.35 min. For the same compound, the “Stage-I (Time in min)” value (depressive patients; After 6 months treatment) was 162.98 min, the “Stage-II (Time in min)” value (depressive patients; After 6 months treatment) was 46.22 min and the “Stage-III (Time in min)” value (depressive patients; After 6 months treatment) was 15.82 min. The “Total Sleep” value (depressive patients; After 6 months treatment) was 201.94 min, the “Sleep Latency” value (depressive patients; Before treatment) was 13.62 min and the Sleep period (depressive patients; Before treatment) was 445.90 min. The “Stage-I (Time in min)” value (depressive patients; Before treatment) was 179.32 min, the “Stage-II (Time in min)” value (depressive patients; Before treatment) was 45.82 min and the “Stage-III (Time in min)” value (depressive patients; Before treatment) was 18.22 min. For the same compound, the “Total Sleep” value (depressive patients; Before treatment) was 234.98 min and the Epinephrine (Epinephrine) was 5.32 ng/mL.
